Patent publication US8877795B2, “Identification of stabilizers of multimeric proteins” (The Board of Trustees of the Leland Stanford Junior …, priority 2010, dated 2014)
Read-outs that look alike come from different tables or passages of the source.

Experiments:
[1] = target: WT TTR (Homo sapiens (Human), UniProt P02766); test: Acid-mediated fibril formation assay for TTR amyloidogenesis (turbidity); conditions: TTR 3.6 μM; for % fibril formation / TTR aggregation inhibition (in words): ligand 7.2 μM, 72 h; for % fibril formation: pH 4.4, 37° C., no ligand = 100%; for inhibition of fibril formation: substoichiometric: ligand 3.0 μM, monitored over 5 days
Protocol: The efficacy of each compound to inhibit TTR amyloidogenesis was determined by monitoring the turbidity of TTR aggregation at acidic pH, as described previously. […] The final 1 ml sample mixture was vortexed, then incubated at 37° C. for 72 hours, after which the sample was vortexed and the optical density was measured at 400 nm on a Beckman DU® 640 spectrophotometer. […] The optical density was also corrected for the absorption of all test compounds in the absence of TTR. […] The optical density (400 nm) was measured as described above at 0, 24, 48, 72, 96, and 120 hours. All assays were performed in triplicate and the average values obtained are presented.
TTR was preincubated with small molecules for 30 min at room temperature before amyloidosis was initiated (lowering pH to 4.4, incubation at 37° C.). […] The amyloidogenesis inhibition efficacy of each compound was determined by monitoring the turbidity of TTR (400 nm). The extent of TTR amyloidogenesis was quantitated at a fixed time point (72 h). All amyloid fibril formation data was normalized to TTR amyloidogenesis in the absence of inhibitor, assigned to be 100% fibril formation. […] The aggregation inhibition was monitored over 5 days using the acid-mediated fibril formation assay (compared to 3 days for the fixed time point described above) (FIG. 5B).

[2] = target: T1, TTR (Homo sapiens (Human), UniProt P02766); test: Determination of IC50 using the FP assay (HTS format, probe 5); assay type: binding; conditions: read-out: IC50 (compound concentration that resulted in 50% decrease in the FP signal); dose-response FP assay in duplicate
[3] = test system: V122I TTR cytotoxicity in human AC16 cardiac cells; test: Inhibition of V122I TTR cytotoxicity in AC16 cells; conditions: TTR and ligand 8 μM, 24 h
Protocol: (§1) The human cardiac cell line AC16 was maintained in DMEM:F12 (1:1) supplemented with 10% FBS, 1 mM Hepes buffer, 2 mM L-glutamine, 100 units/mL penicillin and 100 μg/mL streptomycin. Two to 4-day-old cultures (˜70% confluent) were used for the experiments.
(§2) Recombinant WT TTR purified in the cold in HBSS (Mediatech, Manassas, Va.) was used as a cytotoxic insult to IMR-32 cells and the amyloidogenic V122I TTR was used as cytotoxic insult to cardiac AC16 cells. Candidate compounds (16 mM in DMSO) were diluted 1:1000 with WT TTR or V122I TTR (16 mM in HBSS, filter sterilized) or with HBSS only. The mixtures were vortexed and incubated for 24 h at 4° C. WT TTR or V122I TTR (16 mM in HBSS) containing the same amount of DMSO than TTR/candidate compound mixtures was prepared in parallel and incubated under the same conditions.
(§3) The neuroblastoma IMR-32 and the cardiac AC16 cells were seeded in black wall, clear bottom, tissue culture treated 96-well plates (Costar) at a density of 6,000 cells/well and 250 cells/well, respectively in Opti-mem supplemented with 5% FBS, 1 mM Hepes buffer, 2 mM L-glutamine, 100 units/mL penicillin and 100 μg/mL streptomycin, 0.05 mg/mL CaCl2 and incubated overnight at 37° C. The medium was then removed and replaced immediately by the TTR/compound or HBSS previously diluted 1:1 in Opti-mem supplemented with 0.8 mg/mL BSA, 2 mM Hepes buffer, 4 mM L-glutamine, 200 units/mL penicillin, 200 μg/mL streptomycin and 0.1 mg/mL CaCl2. The cells were incubated 24 h at 37° C. after which cell viability was measured.
(§4) Cell viability of the cells treated with TTR or TTR/candidate compound was evaluated by a resazurin reduction assay. Briefly, 10 μL/well of resazurin (500 mM, PBS) was added to each well and incubated for 2-3 h at 37° C. Viable cells reduce resazurin to the highly fluorescent resorufin dye, which is quantitated in a multiwell plate reader (Ex/Em 530/590 nm, Tecan Safire2, Austria). Cell viability was calculated as percentage of fluorescence relative to cells treated with vehicle only (100% viability) after subtraction of blank fluorescence (wells without cells). All experimental conditions were performed at least in six replicates. Averages and SEM corresponding to 2 independently performed experiments were calculated.
(§5) The compounds under study were pre-incubated with WT TTR or V122I TTR for 24 h at 4° C. at equimolar concentrations (8 μM) and added to IMR-32 cells or AC16 cells, respectively. Cell viability was measured after 24 h by a resazurin reduction assay. […] The percentage of viable cells was calculated relative to cells treated with vehicle only (cell culture media and DMSO)—which were assigned to be 100% viable.

[4] = test system: WT TTR cytotoxicity in human IMR-32 neuroblastoma cells; test: Inhibition of WT TTR cytotoxicity in IMR-32 cells; conditions: TTR and ligand 8 μM, 24 h
Protocol: as §1, §2, §3, §4, §5

[5] = target: human wild type TTR (Homo sapiens (Human), UniProt P02766); test: Isothermal titration calorimetry (ITC) of ligands against TTR; assay type: binding; conditions: for Kd: TTR 2 μM titrated with ligand 25 μM; for TΔS binding entropy / ΔG binding free energy / ΔH binding enthalpy: ITC
Protocol: Calorimetric titrations were carried out on a VP-ITC calorimeter (MicroCal, Northhampton, Mass.). […] Prior to each titration, all samples were degassed for 10 minutes. The initial injection of 3.0 μL was followed by 30 injections of 8.0 μL each (25° C.) to the point that TTR was fully saturated with ligand. Integration of the thermogram after subtraction of blanks yielded a binding isotherm that was analyzed with MicroCal Origin 5.0 software.

[6] = target: T1, TTR; test: Fluorescence polarization displacement assay (probe 5 displaced from TTR); assay type: binding; conditions: probe 5 100 nM, TTR 200 nM
Protocol: The affinity of test compounds to TTR was determined as follows. […] The samples were allowed to equilibrate by agitation for 20 min at room temperature and the fluorescence polarization was measured as described above. The data were fit to the following equation [y=(A−D)/(1+(x/C)^B)+D] where A=maximum FP signal, B=slope, C=apparent binding constant (Kapp), and D=minimum FP signal. The apparent binding constant was reported as mean for triplicate experiments and the best data fit was determined by R^2 value.

[7] = 25° C., one-to-one binding model, read-out: Kd (ITC)

Compound | % fibril formation [1] [%] | IC50 [2] [nM] | further results
COc1ccc(/C=N/n2c(S)nnc2C(F)(F)F)cc1O | 0.43 ± 0.61 | 277 | 
COc1c(Br)cc(/C=C2\SC(=O)NC2=O)cc1Br | 0.37 ± 0.53 | 301 | 
CCOc1ccccc1-c1nc(-c2ccncc2)no1 | 0.00 ± 0.00 |  | 
CC1(C)NC(=O)C(C#N)=C(SCc2ccccc2)S1 | 0.52 ± 0.73 | 433 | 
Cc1[nH]c2ccccc2c1C(C#N)(C#N)C1C(=O)c2ccccc2C1=O | 5.77 ± 3.91 | 586 | 
O=c1cc(-c2ccc(O)cc2)oc2cc(O)cc(O)c12 | 10.07 ± 0.53 | 653 | 
O=C1NC(=O)/C(=C/c2cccc(C(F)(F)F)c2)S1 | 1.92 ± 1.08 | 815 | 
O=C1NC(=O)/C(=C/c2cccc3ccccc23)S1 | 3.22 ± 0.34 | 842 | 
O=C(O)c1cc2nc(-c3ccc(Cl)c(Cl)c3)cc(C(F)(F)F)n2n1 | 1.81 ± 2.56 | 2580 | 
COc1ccccc1CC(=O)c1ccc(O)cc1O | 9.60 ± 1.58 | 2660 | 
Cc1ccccc1/C=C1\SC(=O)NC1=O | 10.44 ± 4.88 | 3350 | 
O=c1c(Oc2ccccc2Br)coc2cc(O)ccc12 | 13.91 ± 1.28 | 3710 | 
O=C(O)Cc1ccccc1Nc1c(O)cccc1Cl | 11.56 ± 0.72 | 3740 | 
O=C1NC(=O)/C(=C/c2ccc(-c3ccc(Cl)c(C(=O)O)c3)o2)S1 | 13.90 ± 5.52 | 3930 | 
O=c1c(Oc2ccccc2Cl)c(C(F)(F)F)oc2cc(O)ccc12 | 24.36 ± 1.11 | 4220 | 
N#CC1=C(SCc2ccccc2)SC(c2ccccc2O)NC1=O (centres unmarked) | 3.17 ± 4.48 | 4790 | 
CSC1=NSC2=NC(=O)/C(=C\c3cccc4ccccc34)C(=N)N12 | 28.77 ± 6.36 | 4880 | 
CCOc1cc(C2NC(C(=O)O)CS2)cc(Br)c1OCc1ccccc1C (centres unmarked) | 17.57 ± 4.81 | 4930 | 
O=C1C(Br)=CC(=NS(=O)(=O)c2ccccc2)C=C1Br | 43.25 ± 4.35 | 5410 | 
Oc1nc(O)c2sc3nc(C(F)(F)F)cc(Cc4ccccc4)c3c2n1 | 35.32 ± 3.69 | 5600 | 
O=C1NC(=O)/C(=C/c2ccccc2OCc2ccccc2)S1 | 38.38 ± 3.33 | 5800 | 

Compound | % fibril formation [1] [%] | IC50 [2] [nM] | further results
CC1=C(CCC(=O)O)C(=O)N2c3ccccc3NC2C1C#N (centres unmarked) | 46.24 ± 1.33 | 8690 | 
COc1cc(/C=C2\C(=N)N3N=C(S(C)(=O)=O)SC3=NC2=O)ccc1OCc1ccccc1C | 48.25 ± 0.68 | 9760 | 
O=C(NCc1cc(Br)cc(Br)c1O)c1ccccc1 | 50.96 ± 1.98 | 10000 | 
CC(=O)Nc1ccc(Nc2nc3ccccc3nc2NS(=O)(=O)c2ccc(C)cc2)cc1 | 49.43 ± 4.26 | 10600 | 
Cc1nc2c(C(=O)NCCC(C)C)cnn2c(O)c1Cc1ccccc1F | 47.39 ± 1.94 | 11000 | 
O=[N+]([O-])c1cc(O)c(O)c([N+](=O)[O-])c1 [3,5-dinitrocatechol, reference compound] |  |  | TTR aggregation inhibition (in words) [1]: potent aggregation inhibitors; prevention of V122I TTR-induced cytotoxicity (in words) [3]: poor inhibitor; prevention of WT TTR-induced cytotoxicity (in words) [4]: poor inhibitor
NCCOCCOCCNC(=O)c1ccc(-c2c(F)cccc2F)cc1 [Compound 2, N-(2-(2-(2-aminoethoxy)ethoxy)ethyl)-2′,6′-difluorobiphenyl-4-carboxamide] |  |  | Kd [5, 7]: > 3290 nM; Kd ([5]; read-out: ITC Kd): > 3290 nM; displacement of probe 5 from TTR (FP signal) [6]: did not displace probe 5; Kd ([6]; read-out: FP Kapp (apparent binding constant)): > 50000 nM
NCCOCCOCCOc1c(Cl)cc(Nc2ccccc2C(=O)O)cc1Cl [Compound 4, 2-(4-(2-(2-(2-aminoethoxy)ethoxy)ethoxy)-3,5-dichlorophenylamino)benzoic acid] |  |  | TΔS binding entropy [5]: 0.08 ± 0.01 kcal/mol; ΔG binding free energy [5]: -8.93 ± 0.14 kcal/mol; ΔH binding enthalpy [5]: -8.85 ± 0.95 kcal/mol; Kd [5, 7]: 285 nM
O=C(O)c1ccccc1Nc1cc(Cl)c(OCCOCCOCCNC(=S)Nc2ccc3c(c2)C(=O)OC32c3ccc(O)cc3Oc3cc(O)ccc32)c(Cl)c1 [Compound 5, 2-(3,5-dichloro-4-(2-(2-(2-(3-(3′,6′-dihydroxy-3-oxo-3H-spiro[isobenzofuran-1,9′-xanthene]-5-yl)thioureido)ethoxy)ethoxy)ethoxy)phenylamino)benzoic acid] |  |  | decrease in binding affinity to TTR on attaching FITC to 4 ([5]; 5 relative to 4): ~3 fold; TΔS binding entropy [5]: 1.44 ± 0.07 kcal/mol; ΔG binding free energy [5]: -8.30 ± 0.45 kcal/mol; ΔH binding enthalpy [5]: -6.86 ± 0.36 kcal/mol; Kd [5, 7]: 820 nM
Cc1n[nH]c(C)c1CCCOc1ccccc1F [Compound 7] |  |  | inhibition of fibril formation [1]: > 75%; TΔS binding entropy [5]: -0.15 ± 0.002 kcal/mol; ΔG binding free energy [5]: -8.86 ± 0.17 kcal/mol; ΔH binding enthalpy [5]: -9.01 ± 0.13 kcal/mol; Kd [5, 7]: 321 nM; prevention of V122I TTR-induced cytotoxicity (in words) [3]: completely prevented TTR-induced cytotoxicity; prevention of WT TTR-induced cytotoxicity (in words) [4]: completely prevented TTR-induced cytotoxicity
CN1C(=N)NC(=O)/C1=C/c1cc(Br)c(O)c(Br)c1 [Compound 14] |  |  | inhibition of fibril formation [1]: > 75%; TΔS binding entropy [5]: 2.36 ± 0.08 kcal/mol; ΔG binding free energy [5]: -9.02 ± 0.19 kcal/mol; ΔH binding enthalpy [5]: -6.66 ± 0.22 kcal/mol; Kd [5, 7]: 245 nM; prevention of V122I TTR-induced cytotoxicity (in words) [3]: completely prevented TTR-induced cytotoxicity; prevention of WT TTR-induced cytotoxicity (in words) [4]: completely prevented TTR-induced cytotoxicity
Cc1n[nH]c(C)c1CCc1nc2c3ccccc3[nH]c(=S)n2n1 [Compound 15] |  |  | inhibition of fibril formation [1]: > 75%; prevention of V122I TTR-induced cytotoxicity (in words) [3]: completely prevented TTR-induced cytotoxicity; prevention of WT TTR-induced cytotoxicity (in words) [4]: completely prevented TTR-induced cytotoxicity
O=C(O)c1cccnc1Nc1cccc(C(F)(F)F)c1 [Niflumic acid, niflumic acid, reference compound] |  |  | TTR aggregation inhibition (in words) [1]: potent aggregation inhibitors; prevention of V122I TTR-induced cytotoxicity (in words) [3]: relatively poor inhibitor
O=C(c1cc(O)c(O)c([N+](=O)[O-])c1)c1ccccc1F [Ro 41-0960, reference compound] |  |  | TTR aggregation inhibition (in words) [1]: potent aggregation inhibitors; inhibition of fibril formation [1]: > 75%; TΔS binding entropy [5]: -4.3 ± 0.11 kcal/mol; ΔG binding free energy [5]: -9.18 ± 0.47 kcal/mol; ΔH binding enthalpy [5]: -13.5 ± 0.32 kcal/mol; TΔS binding entropy ([5]; listed as Ro41-0960): -4.3 ± 0.11 kcal/mol; ΔG binding free energy ([5]; listed as Ro41-0960): -9.18 ± 0.47 kcal/mol; ΔH binding enthalpy ([5]; listed as Ro41-0960): -13.5 ± 0.32 kcal/mol; Kd [5, 7]: 184 nM; prevention of V122I TTR-induced cytotoxicity (in words) [3]: completely prevented TTR-induced cytotoxicity; prevention of WT TTR-induced cytotoxicity (in words) [4]: completely prevented TTR-induced cytotoxicity
O=C(O)c1cccnc1Nc1cccc(C(F)(F)F)c1 [drawing 60] | 4.83 ± 1.19 |  | 
Cc1n[nH]c(C)c1CCCOc1ccccc1F [drawing 61] | 0.75 ± 1.06 | 296 | 
O=[N+]([O-])c1cc(O)c(O)c([N+](=O)[O-])c1 [drawing 68] | 1.08 ± 0.59 |  | 
O=C(c1cc(O)c(O)c([N+](=O)[O-])c1)c1ccccc1F [drawing 69] | 0.32 ± 0.45 | 755 | 
CN1C(=N)NC(=O)/C1=C/c1cc(Br)c(O)c(Br)c1 [drawing 72] | 0.00 ± 0.00 | 1150 | 
Cc1n[nH]c(C)c1CCc1nc2c3ccccc3[nH]c(=S)n2n1 [drawing 73] | 0.00 ± 0.00 | 1310 | 
